From the NIST ThermoML archive (doi:10.1016/j.jct.2013.04.001)

Experiment: mn = molality of the nth substance listed, in mol/kg
Details: 101 kPa, Liquid; for mass density: Pycnometric method; for viscosity: Capillary tube (Ostwald / Ubbelohde) method

N=C(N)NCCC[C@H](N)C(=O)O [L-arginine] + O
Details | mass density [kg/m3] | viscosity [mPa·s]
293.15 K, m1 = 0.025 | 999.51 | –
293.15 K, m1 = 0.05 | 1000.78 | –
293.15 K, m1 = 0.075 | 1002.04 | –
293.15 K, m1 = 0.1 | 1003.3 | –
293.15 K, m1 = 0.125 | 1004.55 | –
293.15 K, m1 = 0.15 | 1005.79 | –
293.15 K, m1 = 0.175 | 1007.02 | –
293.15 K, m1 = 0.2 | 1008.25 | –
298.15 K, m1 = 0.025 | 998.35 | 0.9009
298.15 K, m1 = 0.05 | 999.62 | 0.9108
298.15 K, m1 = 0.075 | 1000.89 | 0.9207
298.15 K, m1 = 0.1 | 1002.14 | 0.93
298.15 K, m1 = 0.125 | 1003.4 | 0.9393
298.15 K, m1 = 0.15 | 1004.64 | 0.9486
298.15 K, m1 = 0.175 | 1005.88 | 0.9579
298.15 K, m1 = 0.2 | 1007.11 | 0.9668
303.15 K, m1 = 0.025 | 996.96 | 0.8062
303.15 K, m1 = 0.05 | 998.24 | 0.8145
303.15 K, m1 = 0.075 | 999.51 | 0.8225
303.15 K, m1 = 0.1 | 1000.78 | 0.8304
303.15 K, m1 = 0.125 | 1002.03 | 0.838
303.15 K, m1 = 0.15 | 1003.28 | 0.8457
303.15 K, m1 = 0.175 | 1004.53 | 0.8533
303.15 K, m1 = 0.2 | 1005.76 | 0.8609
308.15 K, m1 = 0.025 | 995.36 | 0.7267
308.15 K, m1 = 0.05 | 996.65 | 0.7336
308.15 K, m1 = 0.075 | 997.93 | 0.7403
308.15 K, m1 = 0.1 | 999.2 | 0.7471
308.15 K, m1 = 0.125 | 1000.46 | 0.7535
308.15 K, m1 = 0.15 | 1001.72 | 0.7601
308.15 K, m1 = 0.175 | 1002.97 | 0.7664
308.15 K, m1 = 0.2 | 1004.22 | 0.7726
313.15 K, m1 = 0.025 | 993.55 | 0.6593
313.15 K, m1 = 0.05 | 994.85 | 0.6652
313.15 K, m1 = 0.075 | 996.14 | 0.6708
313.15 K, m1 = 0.1 | 997.42 | 0.6764
313.15 K, m1 = 0.125 | 998.69 | 0.6818
313.15 K, m1 = 0.15 | 999.96 | 0.6873
313.15 K, m1 = 0.175 | 1001.22 | 0.6926
313.15 K, m1 = 0.2 | 1002.47 | 0.6976
318.15 K, m1 = 0.025 | 991.55 | 0.6031
318.15 K, m1 = 0.05 | 992.86 | 0.608
318.15 K, m1 = 0.075 | 994.16 | 0.6128
318.15 K, m1 = 0.1 | 995.45 | 0.6174
318.15 K, m1 = 0.125 | 996.74 | 0.622
318.15 K, m1 = 0.15 | 998.01 | 0.6266
318.15 K, m1 = 0.175 | 999.28 | 0.6311
318.15 K, m1 = 0.2 | 1000.55 | 0.6355
